# Test results from ChEMBL document CHEMBL2202958, “Development of potent macrocyclic inhibitors of genotype 3a HCV NS3/4A protease” (Bioorg Med Chem Lett, 2012).
# Key:
# [1] = Inhibition of HCV1b BK NS3/4A protease expressed in Escherichia coli after 1 hr by time-resolved fluorescence assay; set-up: species or system Hepatitis C virus (isolate BK)
# Hepatitis C virus [2] = test: Antiviral activity against HCV1b con1 infected in human Huh-7 cells assessed as inhibition of viral replication after 24 hrs in presence of 10% fetal bovine serum; format: functional, organism-based, Hepacivirus hominis; conditions: Con1, Huh-7, 24 h
# Hepatitis C virus [3] = test: Antiviral activity against HCV1b con1 infected in human Huh-7 cells assessed as inhibition of viral replication after 24 hrs in presence of 50% normal human serum; format: functional, organism-based, Hepacivirus hominis; conditions: Con1, Huh-7, 24 h
# [4] = Inhibition of HCV3a NS3/4A protease by time-resolved fluorescence assay; set-up: species or system Hepatitis C virus subtype 3a
# [5] = Drug level in Sprague-Dawley rat liver at 5 mg/kg, po after 4 hrs; format: ADME, organism-based; set-up: dose 5 mg/kg, route oral; conditions: read-out: Drug uptake
# Hepatitis C virus [6] = test: Inhibition of HCV1b NS3/4A protease A156T mutant by time-resolved fluorescence assay; set-up: species or system Hepatitis C virus subtype 1b
# Hepatitis C virus [7] = test: Inhibition of HCV1b NS3/4A protease R155K mutant by time-resolved fluorescence assay; set-up: species or system Hepatitis C virus subtype 1b
# [8] = Inhibition of HCV3a NS3/4A protease; set-up: species or system Hepatitis C virus subtype 3a
Compound,Ki [1] [nM],IC50 (Hepatitis C virus [2]) [nM],IC50 (Hepatitis C virus [3]) [nM],Ki [4] [nM],concentration at 4 h [5] [µM],Ki (Hepatitis C virus [6]) [nM],Ki (Hepatitis C virus [7]) [nM],Ki [8] [nM]
C=C[C@@H]1C[C@]1(NC(=O)[C@@H]1C[C@@H]2CN1C(=O)[C@H](C1CCCC1)NC(=O)OCC(C)(C)CCCc1cc3c(cc(OCc4csc(C(C)C)n4)nc3cc1OC)O2)C(=O)NS(=O)(=O)C1CC1,< 0.02,4,26,2,2.7,,,
C=C[C@@H]1C[C@]1(NC(=O)[C@@H]1C[C@@H]2CN1C(=O)[C@H](C1CCCCC1)NC(=O)OCC(C)(C)CCCc1cc3c(cc(-c4ccc(F)cc4)nc3cc1OC)O2)C(=O)NS(=O)(=O)C1CC1,0.18,11,110,29,,,,
C=C[C@@H]1C[C@]1(NC(=O)[C@@H]1C[C@@H]2CN1C(=O)[C@H](C1CCCCC1)NC(=O)OCC(C)(C)CCCc1cc3c(cc(N(C)C(=O)OCC)nc3cc1OC)O2)C(=O)NS(=O)(=O)C1CC1,0.03,5,27,4.3,42,87,3.3,
C=C[C@@H]1C[C@]1(NC(=O)[C@@H]1C[C@@H]2CN1C(=O)[C@H](C1CCCCC1)NC(=O)OCC(C)(C)CCCc1cc3c(cc(NC)nc3cc1OC)O2)C(=O)NS(=O)(=O)C1CC1,0.09,1.6,90,5.4,< 0.005,,,
C=C[C@@H]1C[C@]1(NC(=O)[C@@H]1C[C@@H]2CN1C(=O)[C@H](C1CCCC1)NC(=O)OCC(C)(C)CCCc1cc3c(nc4cc(F)ccc4c3cc1OC)O2)C(=O)NS(=O)(=O)C1CC1,< 0.02,9,43,0.9,22,,,
C=C[C@@H]1C[C@]1(NC(=O)[C@@H]1C[C@@H]2CN1C(=O)[C@H](C1CCCC1)NC(=O)OCC(C)(C)CCCc1cc3c(nc4cc(C)ccc4c3cc1OC)O2)C(=O)NS(=O)(=O)C1CC1,< 0.02,4,15,1.9,16,,,
C=C[C@@H]1C[C@]1(NC(=O)[C@@H]1C[C@@H]2CN1C(=O)[C@H](C1CCCCC1)NC(=O)OCC(C)(C)CCCc1cc3c(cc(N4CCCCC4)nc3cc1OC)O2)C(=O)NS(=O)(=O)C1CC1,0.07,5,26,7.5,0.1,,,
C=C[C@@H]1C[C@]1(NC(=O)[C@@H]1C[C@@H]2CN1C(=O)[C@H](C1CCCC1)NC(=O)OCC(C)(C)CCCc1cc3c(cc(OCc4csc(C)n4)nc3cc1OC)O2)C(=O)NS(=O)(=O)C1CC1,0.09,5,26,1.6,0.8,,,
C=C[C@@H]1C[C@]1(NC(=O)[C@@H]1C[C@@H]2CN1C(=O)[C@H](C1CCCCC1)NC(=O)OCC(C)(C)CCCc1cc3c(cc4nccn4c3cc1OC)O2)C(=O)NS(=O)(=O)C1CC1,0.04,43,140,1.8,0.8,,,
C=C[C@@H]1C[C@]1(NC(=O)[C@@H]1C[C@@H]2CN1C(=O)[C@H](C1CCCC1)NC(=O)OCC(C)(C)CCCc1cc3c(cc(OCc4ncn(C)n4)nc3cc1OC)O2)C(=O)NS(=O)(=O)C1CC1,0.03,36,170,1,0.03,,,
C=C[C@@H]1C[C@]1(NC(=O)[C@@H]1C[C@@H]2CN1C(=O)[C@H](C1CCCCC1)NC(=O)OCC(C)(C)CCCc1cc3c(cc(O)nc3cc1OC)O2)C(=O)NS(=O)(=O)C1CC1,0.07,85,460,23,0.07,,,
C=C[C@@H]1C[C@]1(NC(=O)[C@@H]1C[C@@H]2CN1C(=O)[C@H](C1CCCC1)NC(=O)OCC(C)(C)CCCc1cc3c(nc4ccc(Cl)cc4c3cc1OC)O2)C(=O)NS(=O)(=O)C1CC1,< 0.02,7,31,36,,,,
C=C[C@@H]1C[C@]1(NC(=O)[C@@H]1C[C@@H]2CN1C(=O)[C@H](C1CCCCC1)NC(=O)OCC(C)(C)CCCc1cc3c(cc(OCC)nc3cc1OC)O2)C(=O)NS(=O)(=O)C1CC1,0.09,6,43,7.6,40,,,
C=C[C@@H]1C[C@]1(NC(=O)[C@@H]1C[C@@H]2CN1C(=O)[C@H](C1CCCC1)NC(=O)OCC(C)(C)CCCc1cc3c(nc4ccccc4c3cc1OC)O2)C(=O)NS(=O)(=O)C1CC1,< 0.02,3,29,1.7,27,,,
C=C[C@@H]1C[C@]1(NC(=O)[C@@H]1C[C@@H]2CN1C(=O)[C@H](C1CCCCC1)NC(=O)OCC(C)(C)CCCc1cc3c(cc(-c4ccccc4)nc3cc1OC)O2)C(=O)NS(=O)(=O)C1CC1,0.05,3.6,28,21,9.9,,,
C=C[C@@H]1C[C@]1(NC(=O)[C@@H]1C[C@@H]2CN1C(=O)[C@H](C1CCCCC1)NC(=O)OCC(C)(C)CCCc1cc3c(cc(OC4CCCC4)nc3cc1OC)O2)C(=O)NS(=O)(=O)C1CC1,0.05,5,34,15,4.6,,,
C=C[C@@H]1C[C@]1(NC(=O)[C@@H]1C[C@@H]2CN1C(=O)[C@H](C1CCCCC1)NC(=O)OCC(C)(C)CCCc1cc3c(cc(OC)nc3cc1OC)O2)C(=O)NS(=O)(=O)C1CC1,0.04,4,19,4.1,5.4,,,
C=C[C@@H]1C[C@]1(NC(=O)[C@@H]1C[C@@H]2CN1C(=O)[C@H](C1CCCCC1)NC(=O)OCC(C)(C)CCCc1cc3c(cc(-c4cccnc4)nc3cc1OC)O2)C(=O)NS(=O)(=O)C1CC1,,27,92,55,0.2,,,
C=C[C@@H]1C[C@]1(NC(=O)[C@@H]1C[C@@H]2CN1C(=O)[C@H](C1CCCCC1)NC(=O)OCC(C)(C)CCCc1ccc3c(c1)c(cc1nccn13)O2)C(=O)NS(=O)(=O)C1CC1,0.08,33,180,5.2,0.7,,,
CC[C@@H]1C[C@]1(NC(=O)[C@@H]1C[C@@H]2CN1C(=O)[C@H](C(C)(C)C)NC(=O)OCC(C)(C)CCCCc1cccc3c1CN(C3)C(=O)O2)C(=O)NS(=O)(=O)C1CC1 [VANIPREVIR],,,,,,,,54
C=C[C@@H]1C[C@]1(NC(=O)[C@@H]1C[C@@H]2CN1C(=O)[C@H](C1CCCC1)NC(=O)OCC(C)(C)CCCc1cc3c(cc(OCc4ncco4)nc3cc1OC)O2)C(=O)NS(=O)(=O)C1CC1,< 0.02,4,16,1.1,2.6,,,
C=C[C@@H]1C[C@]1(NC(=O)[C@@H]1C[C@@H]2CN1C(=O)[C@H](C1CCCC1)NC(=O)OCC(C)(C)CCCc1cc3c(nc4cc(OC)ccc4c3cc1OC)O2)C(=O)NS(=O)(=O)C1CC1,< 0.02,4,27,0.8,35,16,0.4,
C=C[C@@H]1C[C@]1(NC(=O)[C@@H]1C[C@@H]2CN1C(=O)[C@H](C1CCCCC1)NC(=O)OCC(C)(C)CCCc1cc3c(cc(-c4ccc(OC)cc4)nc3cc1OC)O2)C(=O)NS(=O)(=O)C1CC1,0.07,3,25,18,6.1,,,
C=C[C@@H]1C[C@]1(NC(=O)[C@@H]1C[C@@H]2CN1C(=O)[C@H](C1CCCCC1)NC(=O)OCC(C)(C)CCCc1cc3c(cc(NC4CCCCC4)nc3cc1OC)O2)C(=O)NS(=O)(=O)C1CC1,0.12,39,1200,7.6,,,,
C=C[C@@H]1C[C@]1(NC(=O)[C@@H]1C[C@@H]2CN1C(=O)[C@H](C1CCCC1)NC(=O)OCC(C)(C)CCCc1cc3c(nc4cc(C#N)ccc4c3cc1OC)O2)C(=O)NS(=O)(=O)C1CC1,< 0.02,4,13,0.8,7.5,,,
C=C[C@@H]1C[C@]1(NC(=O)[C@@H]1C[C@@H]2CN1C(=O)[C@H](C1CCCCC1)NC(=O)OCC(C)(C)CCCc1cc3c(cc(OCc4csc(C)n4)nc3cc1OC)O2)C(=O)NS(=O)(=O)C1CC1,0.1,3.5,16,3.1,19,88,2.1,
C=C[C@@H]1C[C@]1(NC(=O)[C@@H]1C[C@@H]2CN1C(=O)[C@H](C1CCCC1)NC(=O)OCC(C)(C)CCCc1cc3c(cc(OCC)nc3cc1OC)O2)C(=O)NS(=O)(=O)C1CC1,0.03,2,11,2.2,35,41,1.3,
C=C[C@@H]1C[C@]1(NC(=O)[C@@H]1C[C@@H]2CN1C(=O)[C@H](C1CCCCC1)NC(=O)OCC(C)(C)CCCc1cc3c(cc(-c4ccccc4OC)nc3cc1OC)O2)C(=O)NS(=O)(=O)C1CC1,0.09,7,31,62,6.3,,,
C=C[C@@H]1C[C@]1(NC(=O)[C@@H]1C[C@@H]2CN1C(=O)[C@H](C1CCCCC1)NC(=O)OCC(C)(C)CCCc1cc3c(cc(-c4cccc(OC)c4)nc3cc1OC)O2)C(=O)NS(=O)(=O)C1CC1,0.07,6,19,78,6.7,,,
